Consider 15 molecules from patent US11912794B2, “Modulation of structured polypeptide specificity” (BicycleRD Limited, priority 2011, dated 2024).

By Ki is commonly meant the equilibrium dissociation constant of an inhibitor or competing ligand from its target. Usually IC50 stands for the concentration needed to halve the response being measured. Higher therefore signals weaker potency in that assay.

Read-outs that look alike come from different tables or passages of the source. Numbered stars: 1 amine (or outer) side, 2 acyl side, 3 side chain; on linkers, the order of the positions; unused ones are H or OH. Bridge positions count the residues as written; N and C are the ends. Square brackets hold non-standard residues; d marks the D form. Peptide text beside a SMILES is read from it. 1Nal = N[C@@H](Cc1cccc2ccccc12)C(=O)O; 2Nal = N[C@@H](Cc1ccc2ccccc2c1)C(=O)O; TBMB = c1c(C[*:1])cc(C[*:3])cc1C[*:2]; NMeR = CN[C@@H](CCCNC(=N)N)C(=O)O; 3Pal = N[C@@H](Cc1cccnc1)C(=O)O; 4Pal = N[C@@H](Cc1ccncc1)C(=O)O; Cha = N[C@@H](CC1CCCCC1)C(=O)O; Aze = O=C(O)[C@@H]1CCN1; Sar = CNCC(=O)O

One series concerns the target T1, human plasma Kallikrein (Homo sapiens, UniProt P03952).
T1 construct: purchased Stratech, UK
Nature of the series: Functional enzyme inhibition assay, fluorogenic substrate Z-PheArg-AMC. Format: biochemical. As to conditions: for loss in potency / reduction in affinity compared to wildtype: vs Ac-06-34-18(TMB)-NH2. The procedure:
Peptides were dissolved as the TFA-salts in their powder form, and stock solutions were usually prepared in water. All solutions were centrifuged and filtered ([…] syringe filters) prior absorption measurement at 280 nm. […] For peptides containing non-natural amino acids with suspected chromophoric properties (i.e. NorHar, 4PhenylPro, 3PaI, 4PaI, Tic, 4GuanPhe, 4,4-BPAI, 3,3-DPA, 1NAI, 2NAI, 4BenzylPro, Ind) concentrations were determined by weighing the powder and dissolving the peptide in a defined quantity of water.

Series [1] can be described thus: Plasma stability profiling method 1 (35% plasma, MALDI-TOF, qualitative). In kind it is in vitro ADME, rat. The note with it: 35% rat plasma, 37 deg C, method 1, comparative estimate. The procedure:
Three methods were employed to assess the stability of bicycles (peptides conjugated to molecular scaffolds) in plasma.
A rapid plasma stability profiling assay was developed that employed mass spectrometric detection (MALDI-TOF, Voyager DE, Applied Biosystems) of the parent mass, until the time when the parent peptide mass was no longer observable. Specifically, 200 uM of peptide was incubated in the presence of 35% rat or human plasma (Sera labs, using citrate as anticoagulant) at 37 deg C., which was supplemented with 1×PBS (derived from a 10×PBS Stock, Sigma). At various time points (i.e. t=0, 3, 24 hrs, henceafter daily up to 10 days), 2 uL of sample was added to 18 uL of 30 mM ammonium bicarbonate in a 1:1 mixture of acetonitrile:H2O. Samples were frozen at −80 deg C. until the time of analysis. For mass spectrometric analysis that determines the approximate detection window of the peptide, the acetonitrile:H2O-diluted sample of a given time point was spotted directly (0.7 uL) onto the MALDI plate. Matrix (alpha-cyanocinnamic acid, Sigma, prepared as a saturated solution in 1:1 acetonitrile:water containing 0.1% trifluoroacetic acid) was layered over the sample (1 uL). At a similar laser intensity setting on the MALDI TOF, the time could then be determined until parent peptide was no longer detectable. It should be noted that this is a qualitative assay serves to detect relative changes in plasma stability.

Where [2] appears, read: Ki (nM) (human kallikrein), Ac-06-34-18(TMB)-NH2 series.

T1 sequence (P03952 20-638): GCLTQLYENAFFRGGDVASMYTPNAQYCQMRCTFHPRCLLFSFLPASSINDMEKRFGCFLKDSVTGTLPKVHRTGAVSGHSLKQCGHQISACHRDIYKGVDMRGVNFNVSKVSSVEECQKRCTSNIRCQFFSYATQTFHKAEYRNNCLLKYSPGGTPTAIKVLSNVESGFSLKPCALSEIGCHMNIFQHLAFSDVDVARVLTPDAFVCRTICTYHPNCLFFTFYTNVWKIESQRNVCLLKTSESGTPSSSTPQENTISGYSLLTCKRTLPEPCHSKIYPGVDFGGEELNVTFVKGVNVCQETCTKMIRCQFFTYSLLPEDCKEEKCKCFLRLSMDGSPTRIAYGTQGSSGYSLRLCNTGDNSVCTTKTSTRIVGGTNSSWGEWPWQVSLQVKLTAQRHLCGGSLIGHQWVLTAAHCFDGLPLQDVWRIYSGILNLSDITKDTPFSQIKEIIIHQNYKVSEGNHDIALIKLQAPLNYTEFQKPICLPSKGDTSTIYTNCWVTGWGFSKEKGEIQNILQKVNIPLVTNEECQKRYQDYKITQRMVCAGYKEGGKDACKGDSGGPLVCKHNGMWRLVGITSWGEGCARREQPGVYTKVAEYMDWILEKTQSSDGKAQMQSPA

In the case of `CC(C)C[C@@H]1NC(=O)[C@H](CC(=O)O)NC(=O)[C@H](CCC(N)=O)NC(=O)[C@H](Cc2c[nH]cn2)NC(=O)[C@H](C)NC(=O)[C@@H]2CSCc3cc(cc(c3)CSC[C@@H](C(=O)N[C@@H](C)C(N)=O)NC1=O)CSC[C@H](NC(=O)[C@H](C)N)C(=O)N[C@@H](C)C(=O)N[C@@H](Cc1c[nH]c3ccccc13)C(=O)N1CCC[C@H]1C(=O)N[C@@H](C)C(=O)N[C@@H](CCCNC(=N)N)C(=O)N2` [06-34-03 - Ala1,6] (H-ACAWPARCAHQDLCA-NH2; linker 2-8-14 via TBMB; N-terminus and C-terminus assumed), the “potency against human plasma Kallikrein compared to parent” value at human plasma Kallikrein is given as “retained full potency”. For the molecule `CC(C)C[C@@H]1NC(=O)[C@H](CC(=O)O)NC(=O)[C@H](CCC(N)=O)NC(=O)[C@H](Cc2c[nH]cn2)NC(=O)CN(C)C(=O)[C@@H]2CSCc3cc(cc(c3)CSC[C@H](NC(=O)[C@H](C)N)C(=O)N(C)CC(=O)N[C@@H](Cc3c[nH]c4ccccc34)C(=O)N3CCC[C@H]3C(=O)N[C@@H](C)C(=O)N[C@@H](CCCNC(=N)N)C(=O)N2)CSC[C@@H](C(=O)N[C@@H](C)C(N)=O)NC1=O` [06-34-03 - N-MeGly1,6, AC N-MeGWPARCN-MeGHQDLCA] (H-AC[Sar]WPARC[Sar]HQDLCA-NH2; linker 2-8-14 via TBMB; N-terminus and C-terminus assumed), at human plasma Kallikrein, the “potency against human plasma Kallikrein compared to parent” value is “reduction in potency”. As to `CC(=O)N[C@H]1CSCc2cc3cc(c2)CSC[C@H](NC(=O)[C@H](CCCNC(=N)N)NC(=O)[C@H](C)NC(=O)[C@@H]2CCCN2C(=O)[C@H](Cc2ccc4ccccc4c2)NC(=O)[C@H](CO)NC1=O)C(=O)N[C@@H](CC(C)C)C(=O)N[C@@H](Cc1c[nH]cn1)C(=O)N[C@@H](CCC(N)=O)C(=O)N[C@@H](CC(=O)O)C(=O)N[C@@H](CC(C)C)C(=O)N[C@H](C(N)=O)CSC3` [Ac-(06-34-18) 2NAL2] (Ac-CS[2Nal]PARCLHQDLC-NH2; linker 1-7-13 via TBMB), the “Observable in rat plasma, for days” value in series [1] was 2 days. Besides, the Ki on human plasma Kallikrein (setting [2]) was found to be 0.5 nM. At human plasma Kallikrein (Ki, text b293, unit inferred), `CC(=O)N[C@H]1CSCc2cc3cc(c2)CSC[C@H](NC(=O)[C@H](CCCNC(=N)N)NC(=O)[C@H](Cc2ccc(O)cc2)NC(=O)[C@@H]2CCCN2C(=O)[C@H](Cc2cccnc2)NC(=O)[C@H](CO)NC1=O)C(=O)N[C@@H](CC(C)C)C(=O)N[C@@H](Cc1c[nH]cn1)C(=O)N[C@@H](CCC(N)=O)C(=O)N[C@@H](CC(=O)O)C(=O)N[C@@H](CC(C)C)C(=O)N[C@H](C(N)=O)CSC3` [Ac-(06-34-18) 3Pal2 Tyr4] (Ac-CS[3Pal]PYRCLHQDLC-NH2; linker 1-7-13 via TBMB) registered an inhibitory constant (Ki) of 0.91 nM. As for `CC(=O)N[C@H]1CSCc2cc3cc(c2)CSC[C@H](NC(=O)[C@H](Cc2ccc(NC(=N)N)cc2)NC(=O)[C@H](C)NC(=O)[C@@H]2CCCN2C(=O)[C@H](Cc2c[nH]c4ccccc24)NC(=O)[C@H](CO)NC1=O)C(=O)N[C@@H](CC(C)C)C(=O)N[C@@H](Cc1c[nH]cn1)C(=O)N[C@@H](CCC(N)=O)C(=O)N[C@@H](CC(=O)O)C(=O)N[C@@H](CC(C)C)C(=O)N[C@H](C(N)=O)CSC3` [Ac-(06-34-18) 4GuanPhe5], the “loss in potency / reduction in affinity compared to wildtype” value (shortened to “loss in potency / reduction in affinity”) on human plasma Kallikrein is 2 fold. For the molecule `CC(=O)N[C@H]1CSCc2cc3cc(c2)CSC[C@H](NC(=O)[C@H](CCCNC(=N)N)NC(=O)[C@H](Cc2ccc(O)cc2)NC(=O)[C@@H]2CCCN2C(=O)[C@H](Cc2ccncc2)NC(=O)[C@H](CO)NC1=O)C(=O)N[C@@H](CC(C)C)C(=O)N[C@@H](Cc1c[nH]cn1)C(=O)N[C@@H](CCC(N)=O)C(=O)N[C@@H](CC(=O)O)C(=O)N[C@@H](CC(C)C)C(=O)N[C@H](C(N)=O)CSC3` [Ac-(06-34-18) 4Pal2 Tyr4] (Ac-CS[4Pal]PYRCLHQDLC-NH2; linker 1-7-13 via TBMB), at human plasma Kallikrein (setting [2]), the Ki turned out to be 3.56 nM. Consider `CC(=O)N[C@H]1CSCc2cc3cc(c2)CSC[C@H](NC(=O)[C@H](CCCNC(=N)N)NC(=O)[C@@H](C)NC(=O)[C@@H]2CCCN2C(=O)[C@H](Cc2c[nH]c4ccccc24)NC(=O)[C@H](CO)NC1=O)C(=O)N[C@@H](CC(C)C)C(=O)N[C@@H](Cc1c[nH]cn1)C(=O)N[C@@H](CCC(N)=O)C(=O)N[C@@H](CC(=O)O)C(=O)N[C@@H](CC(C)C)C(=O)N[C@H](C(N)=O)CSC3` [Ac-(06-34-18) D-Ala4], for which the “loss in potency / reduction in affinity” value at human plasma Kallikrein worked out at 7000 fold.

Consider `CC(=O)N[C@H]1CSCc2cc3cc(c2)CSC[C@H](NC(=O)[C@@H](CCCNC(=N)N)NC(=O)[C@H](C)NC(=O)[C@@H]2CCCN2C(=O)[C@H](Cc2c[nH]c4ccccc24)NC(=O)[C@H](CO)NC1=O)C(=O)N[C@@H](CC(C)C)C(=O)N[C@@H](Cc1c[nH]cn1)C(=O)N[C@@H](CCC(N)=O)C(=O)N[C@@H](CC(=O)O)C(=O)N[C@@H](CC(C)C)C(=O)N[C@H](C(N)=O)CSC3` [Ac-(06-34-18) D-Arg5], for which the “loss in potency / reduction in affinity” value on human plasma Kallikrein turned out to be 300 fold. On the same count and under the same terms, with `CC(=O)N[C@H]1CSCc2cc3cc(c2)CSC[C@H](NC(=O)[C@H](CCCNC(=N)N)NC(=O)[C@H](C)NC(=O)[C@@H]2CCCN2C(=O)[C@@H](Cc2c[nH]c4ccccc24)NC(=O)[C@H](CO)NC1=O)C(=O)N[C@@H](CC(C)C)C(=O)N[C@@H](Cc1c[nH]cn1)C(=O)N[C@@H](CCC(N)=O)C(=O)N[C@@H](CC(=O)O)C(=O)N[C@@H](CC(C)C)C(=O)N[C@H](C(N)=O)CSC3` [Ac-(06-34-18) D-Trp2] the figure was 45000 fold.

On human plasma Kallikrein (setting [2]), `CC(=O)N[C@H]1CSCc2cc3cc(c2)CSC[C@H](NC(=O)[C@H](CCCNC(=N)N)NC(=O)[C@H](Cc2cccc4ccccc24)NC(=O)[C@@H]2CCCN2C(=O)[C@H](Cc2ccccc2)NC(=O)[C@H](CO)NC1=O)C(=O)N[C@@H](CC(C)C)C(=O)N[C@@H](Cc1c[nH]cn1)C(=O)N[C@@H](CCC(N)=O)C(=O)N[C@@H](CC(=O)O)C(=O)N[C@@H](CC(C)C)C(=O)N[C@H](C(N)=O)CSC3` [Ac-(06-34-18) Phe2 1Nal4] (Ac-CSFP[1Nal]RCLHQDLC-NH2; linker 1-7-13 via TBMB) showed a Ki of 13.5 nM. `CC(=O)N[C@H]1CSCc2cc3cc(c2)CSC[C@H](NC(=O)[C@H](CCCNC(=N)N)NC(=O)[C@H](Cc2ccncc2)NC(=O)[C@@H]2CCCN2C(=O)[C@H](Cc2ccccc2)NC(=O)[C@H](CO)NC1=O)C(=O)N[C@@H](CC(C)C)C(=O)N[C@@H](Cc1c[nH]cn1)C(=O)N[C@@H](CCC(N)=O)C(=O)N[C@@H](CC(=O)O)C(=O)N[C@@H](CC(C)C)C(=O)N[C@H](C(N)=O)CSC3` [Ac-(06-34-18) Phe2 4Pal4] (Ac-CSFP[4Pal]RCLHQDLC-NH2; linker 1-7-13 via TBMB) had a Ki at human plasma Kallikrein (setting [2]) of 2.2 nM. With `CC(=O)N[C@H]1CSCc2cc3cc(c2)CSC[C@H](NC(=O)[C@H](CCCNC(=N)N)N(C)C(=O)[C@H](Cc2ccc(O)cc2)NC(=O)[C@@H]2CCN2C(=O)[C@H](Cc2ccccc2)NC(=O)[C@H](CO)NC1=O)C(=O)N[C@@H](CC(C)C)C(=O)N[C@@H](Cc1c[nH]cn1)C(=O)N[C@@H](CCC(N)=O)C(=O)N[C@@H](CC(=O)O)C(=O)N[C@@H](CC(C)C)C(=O)N[C@H](C(N)=O)CSC3` [Ac-(06-34-18) Phe2 Aze3Tyr4 NMeArg5] (Ac-CSF[Aze]Y[NMeR]CLHQDLC-NH2; linker 1-7-13 via TBMB), the Ki on human plasma Kallikrein (Ac-06-34-18(TMB)-NH2 series, read-out: Ki (nM) (human kallikrein)) was less than 1 nM. At human plasma Kallikrein (setting [2]), `CC(=O)N[C@H]1CSCc2cc3cc(c2)CSC[C@H](NC(=O)[C@H](CCCNC(=N)N)NC(=O)[C@H](CC2CCCCC2)NC(=O)[C@@H]2CCCN2C(=O)[C@H](Cc2ccccc2)NC(=O)[C@H](CO)NC1=O)C(=O)N[C@@H](CC(C)C)C(=O)N[C@@H](Cc1c[nH]cn1)C(=O)N[C@@H](CCC(N)=O)C(=O)N[C@@H](CC(=O)O)C(=O)N[C@@H](CC(C)C)C(=O)N[C@H](C(N)=O)CSC3` [Ac-(06-34-18) Phe2 Cha4] (Ac-CSFP[Cha]RCLHQDLC-NH2; linker 1-7-13 via TBMB) returned an inhibition constant (Ki) of 0.91 nM. `CN=C(NC)NCCC[C@@H]1NC(=O)[C@H](C)NC(=O)[C@@H]2CCCN2C(=O)[C@H](Cc2c[nH]c3ccccc23)NC(=O)[C@H](CO)NC(=O)[C@@H](NC(C)=O)CSCc2cc3cc(c2)CSC[C@H](NC1=O)C(=O)N[C@@H](CC(C)C)C(=O)N[C@@H](Cc1c[nH]cn1)C(=O)N[C@@H](CCC(N)=O)C(=O)N[C@@H](CC(=O)O)C(=O)N[C@@H](CC(C)C)C(=O)N[C@H](C(N)=O)CSC3` [Ac-(06-34-18) SDMA5]: at human plasma Kallikrein (setting [2]), the affinity, expressed as Ki, was 1410 nM.

On to `CC(C)C[C@@H]1NC(=O)[C@H](CC(=O)O)NC(=O)[C@H](CCC(N)=O)NC(=O)[C@H](Cc2c[nH]cn2)NC(=O)[C@H]([C@@H](C)O)NC(=O)[C@@H]2CSCc3cc(cc(c3)CSC[C@@H](C(=O)N[C@@H](C)C(N)=O)NC1=O)CSC[C@H](NC(=O)[C@H](C)N)C(=O)N[C@@H](CCCNC(=N)N)C(=O)N[C@@H](Cc1c[nH]c3ccccc13)C(=O)N1CCC[C@H]1C(=O)N[C@@H](C)C(=O)N[C@@H](CCCNC(=N)N)C(=O)N2` [Peptide 06-34-02] (H-ACRWPARCTHQDLCA-NH2; linker 2-8-14 via TBMB), for which, at human plasma Kallikrein, inhibition was half-maximal at 0.16 nM (IC50).
